The text below walks through data of patent US8653092B2, “Tetrahydro-pyrido-pyrimidine derivatives” (Novartis AG, priority 2010, dated 2014).

One may read the IC50 as the midpoint of a concentration-inhibition curve. Read a high IC50 as weaker potency.

One assay deals with PI3K delta (Homo sapiens (Human), UniProt O00329). Description: Enzymatic PI3K delta isoform inhibition (lipid kinase, Kinase-Glo luminescence). The class given is biochemical. To be noted: enzymatic assay.
A further assay addresses PI3K alpha (Homo sapiens (Human), UniProt P42336). As to the kind of experiment: Enzymatic PI3K alpha isoform inhibition (lipid kinase, Kinase-Glo luminescence). The class given is biochemical. To be noted: enzymatic assay.

Chain of PI3K delta (O00329 other isoform, or with tags, fused parts or gaps linker GGGGGG): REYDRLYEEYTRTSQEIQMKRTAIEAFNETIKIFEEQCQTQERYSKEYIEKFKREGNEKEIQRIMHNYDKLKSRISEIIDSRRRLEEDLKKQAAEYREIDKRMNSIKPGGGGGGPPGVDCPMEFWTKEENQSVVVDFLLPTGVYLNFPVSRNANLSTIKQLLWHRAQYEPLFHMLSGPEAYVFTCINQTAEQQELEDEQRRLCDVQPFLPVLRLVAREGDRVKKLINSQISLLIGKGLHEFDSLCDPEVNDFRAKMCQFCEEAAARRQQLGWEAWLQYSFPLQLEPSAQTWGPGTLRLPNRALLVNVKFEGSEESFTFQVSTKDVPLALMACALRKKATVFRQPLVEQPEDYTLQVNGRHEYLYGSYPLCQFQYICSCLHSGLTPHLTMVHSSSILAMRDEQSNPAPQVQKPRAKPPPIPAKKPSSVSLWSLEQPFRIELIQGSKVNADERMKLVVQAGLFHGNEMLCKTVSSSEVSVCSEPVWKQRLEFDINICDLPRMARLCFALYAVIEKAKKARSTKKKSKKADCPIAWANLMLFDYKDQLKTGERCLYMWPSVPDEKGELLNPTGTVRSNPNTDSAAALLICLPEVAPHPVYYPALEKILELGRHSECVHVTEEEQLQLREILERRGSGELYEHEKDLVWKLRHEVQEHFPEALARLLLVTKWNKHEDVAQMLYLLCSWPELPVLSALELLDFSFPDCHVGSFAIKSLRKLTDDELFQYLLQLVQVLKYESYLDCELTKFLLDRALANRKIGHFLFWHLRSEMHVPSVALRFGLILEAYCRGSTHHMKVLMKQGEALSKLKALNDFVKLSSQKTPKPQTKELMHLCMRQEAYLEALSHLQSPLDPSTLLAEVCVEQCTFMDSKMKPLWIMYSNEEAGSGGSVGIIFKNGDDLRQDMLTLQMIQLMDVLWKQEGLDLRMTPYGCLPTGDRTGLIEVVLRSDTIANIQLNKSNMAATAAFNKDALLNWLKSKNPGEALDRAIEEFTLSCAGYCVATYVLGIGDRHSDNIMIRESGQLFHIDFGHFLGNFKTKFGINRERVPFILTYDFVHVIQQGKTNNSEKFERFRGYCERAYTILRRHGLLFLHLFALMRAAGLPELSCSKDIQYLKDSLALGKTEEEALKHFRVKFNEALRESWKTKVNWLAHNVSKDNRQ
Chain of PI3K alpha (P42336 other isoform, or with tags, fused parts or gaps): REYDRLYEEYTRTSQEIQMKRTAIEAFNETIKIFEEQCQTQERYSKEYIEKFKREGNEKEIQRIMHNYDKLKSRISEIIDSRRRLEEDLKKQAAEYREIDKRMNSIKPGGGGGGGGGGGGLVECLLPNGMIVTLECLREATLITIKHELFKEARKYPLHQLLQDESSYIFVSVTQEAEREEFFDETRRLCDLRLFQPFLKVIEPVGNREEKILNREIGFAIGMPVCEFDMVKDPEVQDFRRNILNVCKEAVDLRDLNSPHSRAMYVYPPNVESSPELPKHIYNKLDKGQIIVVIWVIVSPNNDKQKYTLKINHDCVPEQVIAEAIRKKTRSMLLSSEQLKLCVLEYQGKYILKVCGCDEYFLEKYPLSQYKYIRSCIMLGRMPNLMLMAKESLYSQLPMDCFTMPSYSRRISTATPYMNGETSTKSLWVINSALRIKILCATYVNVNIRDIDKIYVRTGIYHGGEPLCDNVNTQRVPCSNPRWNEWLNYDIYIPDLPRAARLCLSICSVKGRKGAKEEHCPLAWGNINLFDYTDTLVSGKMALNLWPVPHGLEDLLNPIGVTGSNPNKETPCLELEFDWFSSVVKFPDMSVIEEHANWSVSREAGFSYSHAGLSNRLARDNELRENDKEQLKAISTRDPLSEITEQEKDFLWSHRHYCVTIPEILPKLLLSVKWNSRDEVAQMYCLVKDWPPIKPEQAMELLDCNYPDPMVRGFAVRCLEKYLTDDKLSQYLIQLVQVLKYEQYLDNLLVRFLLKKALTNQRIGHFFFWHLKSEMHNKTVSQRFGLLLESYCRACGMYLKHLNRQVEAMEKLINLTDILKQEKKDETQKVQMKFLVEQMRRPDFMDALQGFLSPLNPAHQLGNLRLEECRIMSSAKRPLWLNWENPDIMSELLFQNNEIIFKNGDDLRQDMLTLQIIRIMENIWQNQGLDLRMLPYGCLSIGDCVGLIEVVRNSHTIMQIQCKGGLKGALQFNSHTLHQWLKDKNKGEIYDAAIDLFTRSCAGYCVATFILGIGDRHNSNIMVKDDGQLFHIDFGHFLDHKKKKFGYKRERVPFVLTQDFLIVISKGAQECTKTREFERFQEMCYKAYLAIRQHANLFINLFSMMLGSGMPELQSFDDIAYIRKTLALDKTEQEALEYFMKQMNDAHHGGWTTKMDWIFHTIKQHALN

`COc1ncc(N2CCc3ncnc(N[C@H]4CCN(C(=O)[C@H]5CC[C@@H](OC)CC5)C4)c3C2)cc1C(F)(F)F` (single isomer, unassigned) [Example 73] displayed an IC50 against PI3K delta of 0.004 µM.

The molecule `COc1ncc(N2CCc3ncnc(N[C@H]4CCN(C(=O)[C@H]5CC[C@H](OC)CC5)C4)c3C2)cc1C(F)(F)F` (single isomer, unassigned) [Example 74] gave an IC50 against PI3K delta of 0.004 µM.

With `COc1ncc(N2CCc3ncnc(N[C@H]4CCN(C(=O)[C@H]5CC[C@@H](O)CC5)C4)c3C2)cc1C(F)(F)F` (single isomer, unassigned) [Example 75], the IC50 against PI3K delta stood at 0.004 µM; against PI3K alpha it was 0.118 µM.

In the case of `COc1ncc(N2CCc3ncnc(N[C@H]4CCN(C(=O)[C@H]5CC[C@H](O)CC5)C4)c3C2)cc1C(F)(F)F` (single isomer, unassigned) [Example 76], the IC50 against PI3K delta worked out at 0.007 µM; on PI3K alpha it was 0.106 µM.

Regarding `COc1ncc(N2CCc3ncnc(O[C@H]4CCN(C(=O)C5CCOCC5)C4)c3C2)c(OC)n1` [Example 2, {(S)-3-[6-(2,4-Dimethoxy-pyrimidin-5-yl)-5,6,7,8-tetrahydro-pyrido[4,3-d]pyrimidin-4-yloxy]-pyrrolidin-1-yl}-(tetrahydro-pyran-4-yl)-methanone], the IC50 at PI3K delta was 0.009 µM; against PI3K alpha, 3.39 µM.

In the case of `COc1ncc(N2CCc3ncnc(O[C@H]4CCN(C(=O)C5CCOCC5)C4)c3C2)cc1C#N` [Example 3, 2-Methoxy-5-{4-[(S)-1-(tetrahydro-pyran-4-carbonyl)-pyrrolidin-3-yloxy]-7,8-dihydro-5H-pyrido[4,3-d]pyrimidin-6-yl}-nicotinonitrile], the IC50 against PI3K delta was found to be 0.015 µM; at PI3K alpha it was 2.39 µM.

As to `CCC(=O)N1CC[C@H](Oc2ncnc3c2CN(c2cnc(OC)c(OC)c2)CC3)C1` [Example 4, 1-{(S)-3-[6-(5,6-Dimethoxy-pyridin-3-yl)-5,6,7,8-tetrahydro-pyrido[4,3-d]pyrimidin-4-yloxy]-pyrrolidin-1-yl}-propan-1-one], the figures for the 50% inhibitory concentration (IC50) at PI3K delta and at PI3K alpha were 0.033 µM and 1.76 µM, respectively.

Consider `N#Cc1cc(N2CCc3ncnc(O[C@H]4CCN(C(=O)C5CCOCC5)C4)c3C2)cnc1N` [Example 6, 2-Amino-5-{4-[(S)-1-(tetrahydro-pyran-4-carbonyl)-pyrrolidin-3-yloxy]-7,8-dihydro-5H-pyrido[4,3-d]pyrimidin-6-yl}-nicotinonitrile], for which the IC50 on PI3K delta amounted to 0.044 µM; against PI3K alpha, 0.987 µM.

On to `COc1ncc(N2CCc3ncnc(O[C@H]4CCN(C(=O)C5CCOCC5)C4)c3C2)cc1F` [Example 7], for which the IC50 was found to be 0.013 µM on PI3K delta and 1.97 µM against PI3K alpha.

`COCC(=O)N1CC[C@H](Oc2ncnc3c2CN(c2cnc(OC)c(C#N)c2)CC3)C1` [Example 8, 2-Methoxy-5-{4-[(S)-1-(2-methoxy-acetyl)-pyrrolidin-3-yloxy]-7,8-dihydro-5H-pyrido[4,3-d]pyrimidin-6-yl}-nicotinonitrile]: the IC50 at PI3K delta was determined as 0.027 µM; on PI3K alpha, 2.49 µM.

On to `COc1ncc(N2CCc3ncnc(O[C@H]4CCN(C(=O)C5CCCC5)C4)c3C2)cc1C#N` [Example 9, 5-[4-((S)-1-Cyclopentanecarbonyl-pyrrolidin-3-yloxy)-7,8-dihydro-5H-pyrido[4,3-d]pyrimidin-6-yl]-2-methoxy-nicotinonitrile], for which the IC50 against PI3K delta came out at 0.009 µM; on PI3K alpha, 2.91 µM.

With `COc1ncc(N2CCc3ncnc(O[C@H]4CCN(C(=O)c5oc(C)nc5C)C4)c3C2)cc1C` [Example 10, (2,4-Dimethyl-oxazol-5-yl)-{(S)-3-[6-(6-methoxy-5-methyl-pyridin-3-yl)-5,6,7,8-tetrahydro-pyrido[4,3-d]pyrimidin-4-yloxy]-pyrrolidin-1-yl}-methanone], the IC50 at PI3K delta is 0.009 µM; against PI3K alpha, 0.668 µM.

On to `COc1ncc(N2CCc3ncnc(O[C@H]4CCN(C(=O)c5ccoc5)C4)c3C2)cc1C` [Example 11, Furan-3-yl-{(S)-3-[6-(6-methoxy-5-methyl-pyridin-3-yl)-5,6,7,8-tetrahydro-pyrido[4,3-d]pyrimidin-4-yloxy]-pyrrolidin-1-yl}-methanone], for which the IC50 at PI3K delta amounted to 0.011 µM; against PI3K alpha it was 1.2 µM.

In the case of `COc1ncc(N2CCc3ncnc(O[C@H]4CCN(C(=O)c5cnco5)C4)c3C2)cc1C` [Example 12, {(S)-3-[6-(6-Methoxy-5-methyl-pyridin-3-yl)-5,6,7,8-tetrahydro-pyrido[4,3-d]pyrimidin-4-yloxy]-pyrrolidin-1-yl}-oxazol-5-yl-methanone], the IC50 was 0.012 µM at PI3K delta and 0.952 µM against PI3K alpha.

Regarding `COc1ncc(N2CCc3ncnc(O[C@H]4CCN(C(=O)c5cncn5C)C4)c3C2)cc1C` [Example 13, {(S)-3-[6-(6-Methoxy-5-methyl-pyridin-3-yl)-5,6,7,8-tetrahydro-pyrido[4,3-d]pyrimidin-4-yloxy]-pyrrolidin-1-yl}-(3-methyl-3H-imidazol-4-yl)-methanone], the IC50 against PI3K delta was determined as 0.013 µM; on PI3K alpha, 1.8 µM.

Regarding `COc1ncc(N2CCc3ncnc(O[C@H]4CCN(C(=O)c5coc(C)n5)C4)c3C2)cc1C` [Example 14, {(S)-3-[6-(6-Methoxy-5-methyl-pyridin-3-yl)-5,6,7,8-tetrahydro-pyrido[4,3-d]pyrimidin-4-yloxy]-pyrrolidin-1-yl}-(2-methyl-oxazol-4-yl)-methanone], the IC50 on PI3K delta amounted to 0.013 µM; on PI3K alpha, 1.83 µM.

For `COc1ncc(N2CCc3ncnc(O[C@H]4CCN(C(=O)C5CC(OC)C5)C4)c3C2)cc1C` (stereo partly drawn) [Example 15, (3-Methoxy-cyclobutyl)-{(S)-3-[6-(6-methoxy-5-methyl-pyridin-3-yl)-5,6,7,8-tetrahydro-pyrido[4,3-d]pyrimidin-4-yloxy]-pyrrolidin-1-yl}-methanone], the IC50 against PI3K delta was 0.014 µM; against PI3K alpha, 1.63 µM.

For the molecule `COc1ncc(N2CCc3ncnc(O[C@H]4CCN(C(=O)c5cocn5)C4)c3C2)cc1C` [Example 16], the IC50 is 0.016 µM on PI3K delta and 1.68 µM against PI3K alpha.

On to `COc1ncc(N2CCc3ncnc(O[C@H]4CCN(C(=O)C5CCN(C(C)=O)CC5)C4)c3C2)cc1C` [Example 17, 1-(4-{(S)-3-[6-(6-Methoxy-5-methyl-pyridin-3-yl)-5,6,7,8-tetrahydro-pyrido[4,3-d]pyrimidin-4-yloxy]-pyrrolidine-1-carbonyl}-piperidin-1-yl)-ethanone], for which the IC50 on PI3K delta worked out at 0.017 µM; against PI3K alpha, 7.68 µM.

The molecule `COc1ncc(N2CCc3ncnc(O[C@H]4CCN(C(=O)N5CCN(C)CC5)C4)c3C2)cc1C(F)(F)F` [Example 85, {(S)-3-[6-(6-methoxy-5-trifluoromethyl-pyridin-3-yl)-5,6,7,8-tetrahydro-pyrido[4,3-d]pyrimidin-4-yloxy]-pyrrolidin-1-yl}-(4-methyl-piperazin-1-yl)-methanone] had an IC50 against PI3K delta of 0.021 µM.

For `COC(=O)N1CC[C@H](Oc2ncnc3c2CN(c2cnc(OC)c(C#N)c2)CC3)C1` [Example 90, (S)-3-[6-(5-cyano-6-methoxy-pyridin-3-yl)-5,6,7,8-tetrahydro-pyrido[4,3-d]pyrimidin-4-yloxy]-pyrrolidine-1-carboxylic acid methyl ester], inhibition against PI3K delta was half-maximal at 0.038 µM (IC50). Compared with the last molecule, the IC50 is about 1.8-fold higher.

In the case of `COc1ncc(N2CCc3ncnc(O[C@H]4CCN(C(=O)c5cnco5)C4)c3C2)cc1C(F)(F)F` [Example 94, {(S)-3-[6-(6-Methoxy-5-trifluoromethyl-pyridin-3-yl)-5,6,7,8-tetrahydro-pyrido[4,3-d]pyrimidin-4-yloxy]-pyrrolidin-1-yl}-oxazol-5-yl-methanone], inhibition at PI3K alpha was half-maximal at 1.71 µM (IC50).
